Measurements from patent US20200270588A1, “GLUCOSYL TRANSFERASE POLYPEPTIDES AND METHODS OF USE” (Syngenta Participations AG, priority 2017, published 2020).

Assays:
[1] = target: T1, Zea mays bx8 glucosyl transferase (his tagged SEQ ID NO: 2) (Zea mays, UniProt Q8W2B7); assay: UDP-Glo glucosyl transferase assay, purified enzyme; format: biochemical; conditions: for Activity: herbicide 0.500 mM, N-terminally his tagged, limit of detection about 0.001
T1 construct: His tag (N); made in house; host or cells: E. coli BL21 (DE3), pET24a
T1 sequence (Q8W2B7 1-459): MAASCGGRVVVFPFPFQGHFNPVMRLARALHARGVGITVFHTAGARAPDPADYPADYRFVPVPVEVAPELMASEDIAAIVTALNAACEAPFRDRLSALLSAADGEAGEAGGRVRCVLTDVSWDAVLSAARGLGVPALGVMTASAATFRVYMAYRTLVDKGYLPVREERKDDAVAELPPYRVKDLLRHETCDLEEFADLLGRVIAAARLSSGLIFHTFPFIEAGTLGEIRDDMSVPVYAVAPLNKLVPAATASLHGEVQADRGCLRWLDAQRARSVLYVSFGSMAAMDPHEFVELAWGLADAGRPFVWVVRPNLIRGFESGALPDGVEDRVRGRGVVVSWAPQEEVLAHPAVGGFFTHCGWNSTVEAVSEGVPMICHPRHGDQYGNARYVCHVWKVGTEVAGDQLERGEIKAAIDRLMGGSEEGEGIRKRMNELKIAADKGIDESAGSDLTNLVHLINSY
Procedure: Glucosyl transferase activity is assayed via measurement of acceptor substrate-dependent production of UDP from ultrapure UDP-glucose using the Promega UDP-Glo™ method and according to the manufacturer's instructions. Assays are run in 96 well microtiter plates.
Enzyme, typically at a stock concentration of ˜2 mg/ml is diluted to an appropriate concentration in 50 mM K^+ Hepes buffer at pH7.5 containing 0.5 mg/mL bovine serum albumin (BSA) and 5 ul aliquots of this diluted enzyme added to each well of a Perkin Elmer white ½ area 96 well plate. […] Assays are run for an appropriate time (usually 10 to 60 min) so that the amount of UDP formed lies within the most nearly linear part of the UDP standard curve and are stopped with the addition and mixing of 25 ul UDP-Glo™ detection reagent (prepared as described below). Plates are then incubated at room temperature for 60 minutes and then read in a luminescence plate reader (Perkin Elmer Envision 2130 Multilabel Reader). A UDP standard curve is run alongside each set of assays and reagent blank control assays run with DMSO in place of test herbicide. Typically, 300 pmol of UDP corresponds to a Relative Luminescence Unit (RLU) reading of about 1.5E7 and the response curve between 0 and 600 pmol is fitted to a polynomial function (see for example FIG. 2).
The UDP-Glo™ reagents are made up and used according to the manufacturer's instructions. Thus, Nucleotide Detection Buffer and ATP are combined to make nucleotide detection reagent (NDR) dispensed into aliquots and frozen to be freshly thawed before use.
Km and kcat values in respect of UDP-glucose are derived by carrying out experiments to measure initial rates over a suitable range of concentrations of UDP glucose out at a fixed near saturating concentration of acceptor substrate. Best fit values of kcat, Km and kcat/Km are obtained by direct fitting of the data to the Michaelis-Menten equation using Graphpad Prism™ software.
The glucosyl transferase activities of the mutant bx8-derived polypeptides expressed in these strains were initially assayed versus herbicide V as described in Example 1. The partly purified C-terminally his tagged w/t bx8 enzyme (SEQ ID No: 2) catalyzed glucosyl transfer to herbicide V at a low rate estimated to be less than about 0.002/s at 1 mM herbicide V which, because of a relatively high background of UDP formation in the DMSO (no substrate reagent control) was difficult to quantify using the luminescence assay. Thus further assays were run by LC/MS using which technique the formation of an O-beta glucosyl glucoside of herbicide V could more easily be confirmed but only quantified in a relative sense. Thus the various derivatives of C-terminally his tagged Zea mays bx8 SEQ ID No:2 were cloned and expressed in E. coli BL21 (DE3) as described in Example 1 and assayed in plates as crude extracts, as in Example 2, but monitored by LCMS rather than the luminescence assay.
Assays were carried out as described in Example 1. Partly purified C-terminally his tagged w/t Larkspur enzyme (SEQ ID No 10 with a 6 amino acid C-terminal tag) catalyzed glucosyl transfer to herbicide V at a rate estimated to be about 0.0065/s/pmol at 1 mM herbicide V. The similarly-tagged w/t bx-like enzymes from rye (SEQ ID No 11) and from wheat (SEQ ID No 4) were also active but only at levels close to the detection limit at ˜0.0015/s/pmol. Further examples of assay results from further experiments are depicted in Table 14. […]

[2] = tested on: transgenic tobacco plants expressing SEQ ID NO: 17; assay: Glass house spray test on tobacco, percent damage; format: in vivo; conditions: for tolerance compared with w/t and SEQ ID NO: 1 plants: 200 and 500 g/ha, 14 DAT, several events
Description: Three transgenic populations of about forty tobacco plants and comprising, a glucosyl transferase gene encoding either zmBX8 (SEQ ID NO 2) or zmBX9 (SEQ ID NO 1) were thus produced. A sub-set of about 30 plants were selected on the basis of similar size from each population for spray testing. The plants were then sprayed with 30 g/ha of Compound VI. VI was mixed in water with 0.2-0.25% X-77 surfactant and sprayed from a boom on a suitable track sprayer moving at 2 mph with the nozzle about 2 inches from the plant tops. Spray volume was 200 l/ha. Plants were assessed for damage and scored at 7 and 14 days after treatment (DAT).
In a further example, Zea mays BX8 or BX9 or orthologues of BX8/9, are altered to carry amino acid variants at various positions which increase tolerance to the alcohol and aminal PSII herbicides as described in the example above. DNA sequences that encode these polypeptides (optimized for tobacco or, optionally, codon optimized according to a target crop such as soybean) were prepared for tobacco transformation as described in example 10. […] Transgenic tobacco populations expressing SEQ ID NOs 16 and 17 were generated alongside a population expressing the parental zmBX9 sequence (SEQ ID 1). These populations were sprayed with herbicide V and VI at rates of 200 and 500 g/ha. Plants were assessed for damage and scored at 14 days after treatment (DAT). The results are depicted in Table 19 and also in FIG. 6.

Row | Structure (SMILES) | Activity [1] [pmol/sec/pmol enzyme] | tolerance ([2]; 1 kg/ha, events 7937, 7940, 7952, 8039, 8071, 8106 expressing SEQ ID NOs 16 and 17, data not shown) | tolerance compared with w/t and SEQ ID NO: 1 plants [2] | rate of glucosyl transfer ([1]; 1 mM herbicide V, partly purified C-terminally his tagged enzyme)
1 | CN1CC(O)N(c2cc(C(F)(F)F)c(Cl)cn2)C1=O (centres unmarked) [XI] | 0.001 | – | – | –
2 | CON1C(=O)N(c2cc(C(F)(F)F)ccn2)C(O)[C@@H]1C (some centres unmarked) [Compound VI] | 0.000 | substantially fully tolerant | much superior tolerance | –
3 | CN1CC(O)N(c2cc(C(F)(F)F)ccn2)C1=O (centres unmarked) [Compound V] | 0.000 | – | much superior tolerance | less than 0.002 /s
4 | Cc1cnc(N2C(=O)N(C)CC2O)cc1C(F)(F)F (centres unmarked) [XVIII] | 0.001 | – | – | –
